Results on 19 compounds are retold here after ChEMBL document CHEMBL3621075, “Discovery of benzothiazine derivatives as novel, orally-active anti-epileptic drug candidates with broad anticonvulsant effect” (Bioorg Med Chem Lett, 2015).

The source made the active and inactive calls.

Series [1] deals with Mus musculus. As to the kind of experiment: Anticonvulsant activity in mouse assessed as protection against maximal electroshock-induced seizure at 400 mg/kg. It is filed as functional, organism-based. Background: The maximal electroshock test induces tonic seizures with an electrical stimulus.
In series [2] the test system is Mus musculus. The experiment in a line: Anticonvulsant activity in mouse assessed as protection against maximal electroshock-induced seizure at 100 mg/kg. It is filed as functional, organism-based.
The subject of series [3] is Mus musculus. As to the kind of experiment: Anticonvulsant activity in mouse assessed as protection against maximal electroshock-induced seizure at 25 mg/kg. It is filed as functional, organism-based.
Series [4] has as its system Rattus norvegicus. The experiment in a line: Anticonvulsant activity in rat amygdala kindling model assessed as decrease in rearing and bilateral forelimb clonus seizure 100 mg/kg, po. It is filed as functional, organism-based.
Series [5] deals with Rattus norvegicus. As to the kind of experiment: Anticonvulsant activity in rat amygdala kindling model assessed as change in after-discharge threshold at 100 mg/kg, po. It is filed as functional.
Series [6] relates to Mus musculus. The experiment in a line: Anticonvulsant activity in mouse assessed as protection against subcutaneous pentylenetetrazol-induced seizure at 100 mg/kg. It is filed as functional, organism-based.
In series [7] the test system is Rattus norvegicus. The experiment in a line: Anticonvulsant activity in rat amygdala kindling model assessed as change in after-discharge duration at 30 mg/kg, po. It is filed as functional.
In series [8] the test system is Mus musculus. As to the kind of experiment: Anticonvulsant activity in mouse assessed as protection against maximal electroshock-induced seizure at 50 mg/kg. It is filed as functional, organism-based.
Series [9] relates to Rattus norvegicus. As to the kind of experiment: Anticonvulsant activity in rat amygdala kindling model assessed as change in after-discharge threshold at 30 mg/kg, po. It is filed as functional.
For series [10], the system named is Rattus norvegicus. The experiment in a line: Anticonvulsant activity in rat amygdala kindling model assessed as change in after-discharge duration at 100 mg/kg, po. It is filed as functional.
Series [11] has as its system Mus musculus. The experiment in a line: Anticonvulsant activity in ip-dosed mouse assessed as protection against subcutaneous pentylenetetrazol-induced seizure. It is filed as functional. The following applies: sc.
The species entered for series [12] is Mus musculus. As to the kind of experiment: Anticonvulsant activity in mouse assessed as protection against maximal electroshock-induced seizure. It is filed as functional.
Series [13] is described as follows: Metabolic stability in rat liver microsome assessed as recovery of parent compound after 30 mins in presence NADPH. It is filed as ADME. The following applies: liver microsomes, read-out: Drug recovery. In general terms: Microsomes from liver hold many membrane-bound enzymes, among them those of drug oxidation.
Series [14] can be described thus: Permeability of compound at pH 5.0 by PAMPA assay. It is filed as physicochemical. The note with it: read-out: permeability. A general note: PAMPA measures passive passage across an artificial lipid membrane.
Series [15] can be described thus: Permeability of compound at pH 7.4 by PAMPA assay. It is filed as physicochemical. The following applies: read-out: permeability.
In series [16] the test system is Mus musculus. The experiment in a line: Anticonvulsant activity in mouse assessed as protection against subcutaneous pentylenetetrazol-induced seizure at 400 mg/kg. It is filed as functional, organism-based.

For the compound `CC(=O)NCCNC(=O)C1=Cc2ccccc2S(=O)(=O)N1C`, the outcome in series [1] was inactive.
As for `CCN1C(C(=O)NC2CC2)=C(Cl)c2ccccc2S1(=O)=O`, the result in series [1] was Active.
With `CCNC(=O)C1=C(Cl)c2ccccc2S(=O)(=O)N1C`, the outcome in [2], in [4], in series [6] and in series [8] was Active. The outcome in series [3] was inactive. The Activity in series [5] is 40.5%; in series [7] it was -20%; in series [9] it was 10%; in [10], -18.2%.
On to `O=C(NC1CC1)C1=C(Cl)c2ccccc2S(=O)(=O)N1Cc1ccccc1`, for which the outcome in series [1] was inactive.
A word on the ED50: it is the dose that gives a 50% effect, or the effect in half of the subjects. As to `NS(=O)(=O)Cc1noc2ccccc12` [ZONISAMIDE], the ED50 in series [11] was > 500 mg/kg; in series [12] it was 20 mg/kg. Besides, the Activity is listed as 45.9% in [5], 7% in series [7], 5.1% in series [9] and -37.6% in series [10].
As to `CC1=C(C(=O)NC2CC2)N(C)S(=O)(=O)c2ccccc21`, in [2], the result was inactive. Further, the remaining at 0.5 h in series [13] is > 90%. The Papp in series [14] and in [15] was 12 ×10⁻⁶ cm/s throughout. Besides, the result in series [1] was Active.
With `CCNC(=O)C1=Cc2ccccc2S(=O)(=O)N1C`, in series [13], the remaining at 0.5 h is > 90%. Also, the result in [16] and in [1] was Active. Besides, the Papp in series [14] and in [15] was 5.9 ×10⁻⁶ cm/s in each case.
With `CN1C(C(=O)NC2CC2)=C(c2ccccc2)c2ccccc2S1(=O)=O`, the result in [16] was inactive.
Turning to `CN(C)C(=O)C1=Cc2ccccc2S(=O)(=O)N1C`, in series [1], the result was Active.
Turning to `CNC(=O)C1=Cc2ccccc2S(=O)(=O)N1C`, in series [13], the remaining at 0.5 h is > 90%. In addition, the Papp in [14] and in series [15] was 5.9 ×10⁻⁶ cm/s in each case. Moreover, the result in series [1] was Active.
Regarding `CN1C(C(=O)NC2CC2)=C(Cl)c2ccccc2S1(=O)=O`, the remaining at 0.5 h in [13] was > 90%. Also, the Papp in [14] and in series [15] was 12 ×10⁻⁶ cm/s each time. The result in [1] was Active.
With `CC(C)NC(=O)C1=Cc2ccccc2S(=O)(=O)N1C`, the outcome in [2] and in series [6] was inactive. Also, in series [1], the outcome was Active.
Consider `CN1C(C(=O)NC2CC2)=Cc2ccccc2S1(=O)=O`, for which the outcome in series [2], in series [16] and in series [1] was Active. Besides, the remaining at 0.5 h in [13] was > 90%. The Papp in [14] and in series [15] was 5.9 ×10⁻⁶ cm/s each time.
As to `CN1C(C(=O)NC2CC2)=C(C2CC2)c2ccccc2S1(=O)=O`, the remaining at 0.5 h in [13] is > 90%. For the same compound, the Papp in [14] and in [15] was 12 ×10⁻⁶ cm/s each time. In [1], the result was Active.
For `O=C1NC(=O)C(c2ccccc2)(c2ccccc2)N1` [PHENYTOIN], the ED50 in series [11] was > 300 mg/kg; in [12], 8 mg/kg.
In the case of `CCC1=C(C(=O)NC2CC2)N(C)S(=O)(=O)c2ccccc21`, the result in series [1] was Active.
Turning to `NC(=O)N1c2ccccc2C=Cc2ccccc21` [CARBAMAZEPINE], the results for the ED50 in series [11] and in series [12] were > 100 mg/kg and 13 mg/kg, respectively.
For the compound `CCCNC(=O)C1=Cc2ccccc2S(=O)(=O)N1C`, in series [13], the remaining at 0.5 h is > 90%. Moreover, the result in series [16] and in series [1] was Active. In addition, the Papp in series [14] and in series [15] was 5.9 ×10⁻⁶ cm/s in each case. Besides, the result in series [8] was inactive.
With `CN1C(C(=O)NCC(F)F)=Cc2ccccc2S1(=O)=O`, in series [1], the outcome was Active.
